Assay results reported in US6613758B1, “Method for treating osteoporosis in castrated prostatic cancer patients” (Barr Laboratories, Inc., priority 1999, dated 2003).

How the values were obtained:
[1] = 17 patients, goserelin alone; cited from earlier work
[2] = system: human breast cancer ZR-75-1 cells; details: low concentrations, in vitro; cited from earlier work
[3] = orchiectomized patients, 6 months, 150 mg/day CPA (50 mg t.i.d.); cited from earlier work
[4] = cited from earlier work
[5] = 367 evaluable patients; criteria weight gain and pain relief; cited from earlier work
[6] = men; cited from earlier work
[7] = pharmacokinetics of CPA in humans, plasma concentration; assay type: in vivo, human; details: longer period of continual dosing of 50 mg per day
Excerpt: The Androcur® Monograph, Berlex, Canada (1997) reports on the pharmacokinetics of CPA in humans. […] Blood levels of CPA are known to be generally dose dependent.

[8] = male subjects, oral, one 50 mg dose; cited from earlier work
[9] = castrated adult rats; cited from earlier work

Question: Which “patients with transient increase in bone pain” value [1] does the source give for `CC(C)C[C@H](NC(=O)[C@@H](COC(C)(C)C)NC(=O)[C@H](Cc1ccc(O)cc1)NC(=O)[C@H](CO)NC(=O)[C@H](Cc1c[nH]c2ccccc12)NC(=O)[C@H](Cc1cnc[nH]1)NC(=O)[C@@H]1CCC(=O)N1)C(=O)N[C@@H](CCCNC(=N)N)C(=O)N1CCC[C@H]1C(=O)NNC(N)=O` [goserelin] here?
Answer: 58.5%

Question: For `C#C[C@]1(O)CC[C@H]2[C@@H]3CCC4=CC(=O)CC[C@]4(C)[C@H]3CC[C@@]21C` [ethisterone], which androgenic activity [2] is on record?
Answer: possess androgenic activity

Question: Which androgenic activity [2] does the source give for `C[C@]12CC[C@H]3[C@@H](CCC4=CC(=O)CC[C@@H]43)[C@@H]1CC[C@@H]2O` [nor-testosterone] here?
Answer: possess androgenic activity

Question: Which “number of patients experiencing hot flashes or outbreaks of sweating” value [3] does the source give for `CC(=O)O[C@]1(C(C)=O)CC[C@H]2[C@@H]3C=C(Cl)C4=CC(=O)[C@@H]5C[C@@H]5[C@]4(C)[C@H]3CC[C@@]21C` [CPA, Cyproterone acetate] here?
Answer: decreased

Question: What about the “discontinuation due to side effects” value ([4]; 89 orchiectomized patients, 50 mg/day CPA, 2 to 152 months) of the same molecule?
Answer: in no case

Question: What about the “cases of hepatocellular carcinoma” value ([4]; over 2500 patients, long term CPA use) of the same molecule?
Answer: Not a single case

Question: And the “patients with general improvement in subjective assessment of quality of life” value [5]?
Answer: 70%

Question: And the “threshold value for an antiandrogen effect” value [6]?
Answer: 50 mg

Question: What about the “cumulative plasma level, steady state” value [7] of the same molecule?
Answer: ≥ 750 nmol/L

Question: And the androgenic activity [2]?
Answer: possess androgenic activity

Question: What about the mean plasma concentration [8] of the same molecule?
Answer: about 700 nmol/L

Question: And the “inhibition of complete involution of the ventral prostate” value [9]?
Answer: very weak
